Experimental data as given in PMC11527929 (European Journal of Nuclear Medicine and Molecular Imaging, 2024).

Tests used:
H446 cells [1] = test: Cell viability, AlamarBlue HS assay; format: cell-based; conditions: Homo sapiens, NCI-H446, PARPi alone for 72 h, 3 independent experiments
Experimental: (§1) Cell viability was determined using the AlamarBlue high sensitivity (HS) assay (Thermo Fisher Scientific, #A50101). 5,000 cells per well were seeded in 96-well black clear F-bottom plates (H446) or 96-well black clear V-bottom plates (H69). H69 suspension cells were centrifuged and resuspended for each washing step. […] All wells, including untreated wells, contained 0.5% (v/v) DMSO throughout the assay. 96 h after seeding, medium was removed and resazurin (AlamarBlue HS) solution was added to each well at a final concentration of 10% (v/v) and incubated for 1 h at 37 °C before fluorescence was measured using a Biotek Synergy HT plate reader (Excitation: 540/35 nm, Emission: 590/20 nm). Relative viability was calculated in relation to “untreated” wells. We carried out three biological repeats with 3–6 technical replicates per plate. IC50-values were computed by applying the nonlinear regression function (Dose–response – Inhibition; Inhibitor vs. normalized response) in GraphPad Prism 9.

H69 cells = test: Cell viability, AlamarBlue HS assay; format: cell-based; conditions: Homo sapiens, NCI-H69, PARPi alone for 72 h, 3 independent experiments
Experimental: as §1

H69 xenografts [2] = test: In vivo treatment study, single PRRT dose; set-up: species or system athymic nude mice; conditions: for tumor doubling time: PARPi 10 mg/kg i.p. days 1–5 and 8–12, PRRT ~40 MBq single dose on day 3, untreated 3.6 days; for time after start of treatment to mean tumor volume of 400 mm^3: untreated 10 days
Experimental: Authorization for all animal experiments was obtained from the Regierung von Oberbayern. Mice were housed under specific-pathogen free conditions with access to mouse chow and water ad libitum. […] Animals were regularly monitored as defined in the license.
Mice in the PARPi and combination therapy groups received daily i.p. injections of PARPi on days 1–5 and 8–12 at a dose of 10 mg/kg. […] Length, width and depth of the subcutaneous tumors were measured daily using a caliper and tumor volume was calculated using the ellipsoid formula. Mice were weighed regularly after start of the treatment. Mice were euthanized when they reached pre-defined criteria. […] In the H69 cohort, one animal per group was euthanized 3 days after PRRT (or equivalent time) and tumor, bone and kidney tissues were processed for histopathology.

H446 cells [3] = test: Clonogenic assay; format: cell-based, human; conditions: 0.5 µM PARPi 72 h and/or 12.5 kBq [177Lu]Lu-DOTA-TOC 24 h, colonies after 7 days, mean of 2 independent experiments
Experimental: H446 cells were seeded in 6-well plates 48 h prior to the experiment. […] Following treatment, compounds were removed, and fresh medium was added. After 7 days, colonies were fixed with cold methanol, stained with 5% crystal violet in PBS and subsequently counted. Survival fractions were calculated by dividing the plating efficiency as counted colonies divided by seeded cells of the respective treatment group through the plating efficiency of the untreated control group.

H446 xenografts = test: In vivo treatment study, single PRRT dose; set-up: species or system athymic nude mice; conditions: for tumor doubling time: PARPi 10 mg/kg i.p. days 1–5 and 8–12, PRRT ~40 MBq single dose on day 3, untreated 3.6; for median survival: single PRRT dose study, untreated 12 days
Experimental: (§2) Authorization for all animal experiments was obtained from the Regierung von Oberbayern. Mice were housed under specific-pathogen free conditions with access to mouse chow and water ad libitum. Female 7–8 weeks old athymic nude mice (Crl:NU/NCr-Foxn1nu, Charles River Laboratories, Sulzfeld) were subcutaneously injected with 1–4 × 10^6 H69 or H446 cells in 1:1 RPMI-1640 medium:Matrigel (Corning Inc., #11543550). Animals were regularly monitored as defined in the license.
(§3) 10–15 days after xenografting, mice were randomized into 4 (H446) or 6 (H69) groups after stratification for tumor size to ensure a uniform initial tumor size distribution (H446: ~ 150 mm^3; H69: ~ 60 mm^3; Supplementary Fig. 2A, B). Mice in the PARPi and combination therapy groups received daily i.p. injections of PARPi on days 1–5 and 8–12 at a dose of 10 mg/kg. […] Length, width and depth of the subcutaneous tumors were measured daily using a caliper and tumor volume was calculated using the ellipsoid formula. Mice were weighed regularly after start of the treatment. Mice were euthanized when they reached pre-defined criteria. During the study, only the criteria of tumor growth (single dimension ≤ 15 mm) or maximum observation time came into effect. In the H69 cohort, one animal per group was euthanized 3 days after PRRT (or equivalent time) and tumor, bone and kidney tissues were processed for histopathology.

bone marrow and kidney = test: Histopathology (H&E) after in vivo treatment; set-up: species or system athymic nude mice; conditions: H69 cohort, single dose study; day 3 after PRRT; one animal per group
Experimental: as §3
All samples were fixated in 4% PFA for 24 h and subsequently stored in 70% ethanol at 4 °C until the radioactivity had fully decayed. Samples containing bone for bone marrow analysis were decalcified using OSTEOSOFT® (Merck) solution. Formalin-fixed paraffin embedded (FFPE) tissues were cut into 2 µm sections using a microtome. After deparaffinization and rehydration, tissue sections were subjected to standard H&E staining. Tumor sections were additionally subjected to IHC. […]

H69 xenografts [4] = test: In vivo treatment study, fractionated PRRT dose; set-up: species or system athymic nude mice; conditions: three-fractionated arm: 3 × 20 MBq PRRT days 3, 9, 15, Olaparib 10 mg/kg i.p. days 1–5, 7–11, 13–17, untreated 27 days
Experimental: as §2
Prior to the beginning of treatment, mice were randomly assigned to 7 treatment groups (n = 5–6 animals/group) with an initial mean tumor volume of approx. 50 mm^3 per group (Supplementary Fig. 2C). […] Body weight and tumor volumes were determined every 2–3 days. Animals were sacrificed when pre-defined endpoint criteria or humane endpoint was reached. In this study, only the pre-defined endpoint, a tumor volume of 1000 mm^3 with a maximal size of ≤ 15 mm in a single dimension, was reached. After a maximum observation period of 4 weeks after the last treatment, the study terminated in accordance with the animal protocol.

SCLC = conditions: six SCLC patients; no response on CT scans; cited from earlier work
Text: An alternative therapeutic approach for extended-stage disease could be peptide-receptor radionuclide therapy (PRRT) with somatostatin receptor (SSTR) ligands. The vast majority of SCLC (> 80%) express neuroendocrine markers, and about 50% of all SCLCs express significant levels of somatostatin-receptor type 2 (SSTR2). […] To date, clinical outcomes of retrospective series, which investigated SSTR2-targeted PRRT in SCLC have been rather inconclusive. In one trial, six patients treated with ^90Y-D ...

SMILES | IC50 (H446 cells [1]) | IC50 (H69 cells) | tumor doubling time (H69 xenografts [2]) | time after start of treatment to mean tumor volume of 400 mm^3 (H69 xenografts [2]; single PRRT dose study) | mean surviving fraction, of untreated cells (H446 cells [3]) | tumor doubling time (H446 xenografts) | median survival (H446 xenografts) | angiectasis in the bone marrow (H&E) (bone marrow and kidney) | bone marrow cellularity (H&E) (bone marrow and kidney) | median survival (H69 xenografts [4]) | median survival (H69 xenografts [2]; single PRRT dose study, untreated 18 days) | median progression-free survival (SCLC)
O=C(c1cc(Cc2n[nH]c(=O)c3ccccc23)ccc1F)N1CCN(C(=O)C2CC2)CC1 [Olaparib] | 20 to 40 µM | 20 to 40 µM | 4.0 days | 13 days | 7% | – | – | – | – | – | – | –
CNCc1ccc(-c2[nH]c3cc(F)cc4c3c2CCNC4=O)cc1 [Rucaparib] | 20 to 40 µM | 20 to 40 µM | 4.1 days | 13 days | 13% | 3.9 days | 13 days | low levels of angiectasis | slight bone marrow hypercellularity | – | – | –
C[C@@H](O)[C@@H]1NC(=O)[C@H](CCCCN)NC(=O)[C@@H](Cc2c[nH]c3ccccc23)NC(=O)[C@H](Cc2ccc(O)cc2)NC(=O)[C@@H](NC(=O)[C@@H](Cc2ccccc2)NC(=O)CN2CCN(CC(=O)O)CCN(CC(=O)O)CCN(CC(=O)O)CC2)CSSC[C@@H](C(=O)N[C@H](CO)[C@@H](C)O)NC1=O [[^177Lu]Lu-DOTA-TOC, metal not drawn] | – | – | 6.4 days | 17 days | – | 3.7 days | 11 days | – | – | 34 days | 24 days | –
C[C@@H](O)[C@@H]1NC(=O)[C@H](CCCCN)NC(=O)[C@@H](Cc2c[nH]c3ccccc23)NC(=O)[C@H](Cc2ccc(O)cc2)NC(=O)[C@@H](NC(=O)[C@@H](Cc2ccccc2)NC(=O)CN2CCN(CC(=O)[O-])CCN(CC(=O)[O-])CCN(CC(=O)[O-])CC2)CSSC[C@@H](C(=O)N[C@H](CO)[C@@H](C)O)NC1=O.[90Y+3] [^90Y-DOTATOC] | – | – | – | – | – | – | – | – | – | – | – | 38 days
